{"source": "patent US20120184590A1", "about": "“FORMULATIONS OF INDOLE-3-CARBINOL DERIVED ANTITUMOR AGENTS WITH INCREASED ORAL BIOAVAILABILITY” (UNIVERSITY OF KANSAS, priority 2009, published 2012)", "key": {"[1]": {"test": "Time for syringe dosage forms to dissolve in warm water", "format": "physicochemical", "details": "shaken in warm water (approximately 40° C.)", "method": "A similar set of sample tubes was prepared for a monkey study. Twenty-eight tubes with 11.2±0.1 g of 5 mg/g SR13668 in Solutol were prepared providing a dose of 56 mg SR13668 per tube. A set of 3-mL disposable plastic syringes were prepared containing a 5 mg dose of SR13668 in either Solutol, Vit E TPGS or 1:1 Solutol:Vit E TPGS. The syringes were prepared so the dosage form could be pushed out and dissolved in warm water to administer to monkeys by gavage. The syringes were prepared by (a) cutting off the tip-end at the 0.1 mL mark of a plastic, disposable 3-mL syringe, (b) pulling back the plunger, (c) filling the syringe by weight with the liquid melt at 65° C. to give the correct dosage and (d) allowing the formulation to harden. Each formulation contained between 3.5-4.2 mg SR13668/g matrix and approximately 1.2 g of the formulation was needed in each syringe to give a 5 mg dose. The syringes were fairly easy to make and to expel the dosage form into warm water. The doses where shaken in warm water (approximately 40° C.) and took the following amounts of time to dissolve: <1 min. for Solutol, 15 min for 1:1 Solutol:Vit E TPGS, and 37 min for Vit E TPGS."}, "[2]": {"test": "Solubility of SR13668 in various solvents", "format": "physicochemical", "details": "for solubility: thermodynamic from solid", "excerpt": "The other three systems are similar to the Solutol solutions, but the Solutol is the best candidate having the lowest freezing point (see Table 10) and a high SR13668 solubility (see Table 11). […] Vit E TPGS is water soluble natural-source vitamin E d-alpha tocopheryl polyethyleneglycol succinate, 387 IU/g. Myrj is Polyethylene Glycol (50) Monostearate."}}}
{"smiles": "CCOC(=O)c1ccc2[nH]c3c(OC)c4[nH]c5ccc(C(=O)OCC)cc5c4cc3c2c1", "note": "[SR13668, 2,10-dicarbethoxy-6-methoxy-5,7-dihydro-indolo-(2,3-b)carbazole]", "values": [{"measurement": "time to dissolve", "setting": "[1]; 5 mg dose of SR13668 in 1:1 Solutol:Vit E TPGS", "result": 15, "unit": "min"}, {"measurement": "time to dissolve", "setting": "[1]; 5 mg dose of SR13668 in Solutol", "result": "< 1", "unit": "min"}, {"measurement": "time to dissolve", "setting": "[1]; 5 mg dose of SR13668 in Vit E TPGS", "result": 37, "unit": "min"}, {"measurement": "aqueous solubility", "setting": "[2]", "result": "extremely low"}, {"measurement": "solubility", "setting": "[2]; 65 °C, aqueous with cosolvent or surfactant or cyclodextrin, Solutol, 65-70 ° C., HPLC", "result": 7000, "unit": "µg/mL"}, {"measurement": "solubility", "setting": "[2]; 65 °C, aqueous with cosolvent or surfactant or cyclodextrin, Vitamin E TPGS, 65-70 ° C., UV", "result": 5500, "unit": "µg/mL"}, {"measurement": "solubility", "setting": "[2]; 65 °C, organic solvent or mixture, Gelucire 44/14, 65-70 ° C., UV", "result": 4260, "unit": "µg/mL"}, {"measurement": "solubility", "setting": "[2]; 65 °C, organic solvent or mixture, Gelucire 50/13, 65-70 ° C., UV", "result": 4150, "unit": "µg/mL"}, {"measurement": "solubility", "setting": "[2]; 65 °C, organic solvent or mixture, Myrj 52, 65-70 ° C., UV", "result": 6700, "unit": "µg/mL"}, {"measurement": "solubility", "setting": "[2]; 65 °C, organic solvent or mixture, Myrj 53, 65-70 ° C., UV", "result": 6800, "unit": "µg/mL"}, {"measurement": "solubility", "setting": "[2]; 65 °C, organic solvent or mixture, PEG-400, 65-70 ° C., UV", "result": 9000, "unit": "µg/mL"}, {"measurement": "solubility", "setting": "[2]; 65 °C, organic solvent or mixture, PEG-400 New, 65-70 ° C., UV", "result": 7600, "unit": "µg/mL"}, {"measurement": "solubility", "setting": "[2]; 65 °C, organic solvent or mixture, PEG-1000, 65-70 ° C., UV", "result": 8150, "unit": "µg/mL"}, {"measurement": "solubility", "setting": "[2]; 65 °C, organic solvent or mixture, PEG-2000, 65-70 ° C., UV", "result": 8800, "unit": "µg/mL"}, {"measurement": "solubility", "setting": "[2]; fassgf or other biorelevant, Simulated Intestinal Fluid, RT, HPLC", "result": 0.0075, "unit": "µg/mL"}, {"measurement": "solubility", "setting": "[2]; oil or lipid, Corn Oil, RT, HPLC", "result": 108, "unit": "µg/mL"}, {"measurement": "solubility", "setting": "[2]; oil or lipid, Safflower Oil, RT, HPLC", "result": 77, "unit": "µg/mL"}, {"measurement": "solubility", "setting": "[2]; oil or lipid, Sesame Oil, RT, HPLC", "result": 47, "unit": "µg/mL"}, {"measurement": "solubility", "setting": "[2]; oil or lipid, Soybean Oil, RT, HPLC", "result": 55, "unit": "µg/mL"}, {"measurement": "solubility", "setting": "[2]; oil or lipid, Sunflower Oil, RT, HPLC", "result": 66, "unit": "µg/mL"}, {"measurement": "solubility", "setting": "[2]; organic solvent or mixture, 1-octanol, RT, HPLC", "result": 123, "unit": "µg/mL"}, {"measurement": "solubility", "setting": "[2]; organic solvent or mixture, Absolute Ethanol, RT, HPLC", "result": 75, "unit": "µg/mL"}, {"measurement": "solubility", "setting": "[2]; organic solvent or mixture, Acetone, RT, HPLC", "result": 950, "unit": "µg/mL"}, {"measurement": "solubility", "setting": "[2]; organic solvent or mixture, Acetonitrile, RT, HPLC", "result": 84.9, "unit": "µg/mL"}, {"measurement": "solubility", "setting": "[2]; organic solvent or mixture, Chemophore EL, RT, HPLC", "result": 264, "unit": "µg/mL"}, {"measurement": "solubility", "setting": "[2]; organic solvent or mixture, DMSO, RT, UV", "result": 106000, "unit": "µg/mL"}, {"measurement": "solubility", "setting": "[2]; organic solvent or mixture, Ethanol, RT, UV", "result": 148, "unit": "µg/mL"}, {"measurement": "solubility", "setting": "[2]; organic solvent or mixture, Ethyl Acetate, RT, HPLC", "result": 230, "unit": "µg/mL"}, {"measurement": "solubility", "setting": "[2]; organic solvent or mixture, Glycerin, RT, HPLC", "result": 47, "unit": "µg/mL"}, {"measurement": "solubility", "setting": "[2]; organic solvent or mixture, Labrasol, RT, UV", "result": 380, "unit": "µg/mL"}, {"measurement": "solubility", "setting": "[2]; organic solvent or mixture, Methanol, RT, UV", "result": 86.3, "unit": "µg/mL"}, {"measurement": "solubility", "setting": "[2]; organic solvent or mixture, Methylene Chloride, RT, HPLC", "result": 62, "unit": "µg/mL"}, {"measurement": "solubility", "setting": "[2]; organic solvent or mixture, PEG-400, RT, UV", "result": 880, "unit": "µg/mL"}, {"measurement": "solubility", "setting": "[2]; organic solvent or mixture, PEG-400 New, RT, UV", "result": 1370, "unit": "µg/mL"}, {"measurement": "solubility", "setting": "[2]; organic solvent or mixture, Pluronic F-127, 120 ° C., HPLC", "result": 9480, "unit": "µg/mL"}, {"measurement": "solubility", "setting": "[2]; organic solvent or mixture, Propylene Glycol, RT, HPLC", "result": 84, "unit": "µg/mL"}, {"measurement": "solubility", "setting": "[2]; Simulated Gastric Fluid, RT, HPLC", "result": 0.014, "unit": "µg/mL"}, {"measurement": "solubility", "setting": "[2]; Water, RT, HPLC", "result": 0.01, "unit": "µg/mL"}]}
